Assay: molar heat capacity at constant pressure
Conditions: 101.33 kPa, Crystal 1

Cl.NC12CC3CC(CC(C3)C1)C2 [1-aminoadamantane hydrochloride]
molar heat capacity at constant pressure [J/K/mol]
Conditions | Small (less than 1 g) adiabatic calorimetry | Small sample (50 mg) DSC
326.4 K | – | 234.8
327.19 K | 238.6 | –
328 K | – | 236
329.23 K | 240.1 | –
329.6 K | – | 237.3
330 K | 240.7 | –
331.2 K | – | 238.4
331.26 K | 241.7 | –
332.8 K | – | 239.6
333.3 K | 243.3 | –
334.4 K | – | 241.2
335.34 K | 244.9 | –
336 K | – | 242.3
337.38 K | 246.5 | –
337.6 K | – | 243.3
339.3 K | – | 244.7
339.42 K | 248.1 | –
340 K | 248.6 | –
340.9 K | – | 246.2
341.46 K | 249.6 | –
342.5 K | – | 247.4
343.5 K | 251.3 | –
344.1 K | – | 248.6
345.54 K | 252.9 | –
345.7 K | – | 249.8
347.2 K | – | 251.1
347.58 K | 254.6 | –
348.8 K | – | 252.4
349.62 K | 256.2 | –
350 K | 256.5 | –
350.4 K | – | 253.7
351.66 K | 257.8 | –
352 K | – | 254.9
353.6 K | – | 256.1
353.7 K | 259.4 | –
355.2 K | – | 257.6
355.74 K | 261.1 | –
356.8 K | – | 259
357.78 K | 262.8 | –
358.4 K | – | 260.3
359.82 K | 264.4 | –
360 K | 264.5 | 261.8
361.6 K | – | 263.1
361.86 K | 266 | –
363.2 K | – | 264.7
363.9 K | 267.5 | –
364.8 K | – | 265.8
365.94 K | 269.3 | –
366.3 K | – | 267.1
367.9 K | – | 268.2
367.98 K | 270.9 | –
369.5 K | – | 269.4
370 K | 272.5 | –
371.1 K | – | 270.6
372.7 K | – | 271.9
374.3 K | – | 273.2
375.9 K | – | 274.4
377.4 K | – | 275.5
379 K | – | 276.5
380 K | – | 280
380.6 K | – | 277.8
382.2 K | – | 279
383.8 K | – | 280.3
385.4 K | – | 281.2
386.9 K | – | 282.7
388.5 K | – | 284.1
390 K | – | 288
390.1 K | – | 285
391.7 K | – | 286.5
393.3 K | – | 287.4
394.9 K | – | 288.7
396.4 K | – | 289.9
398 K | – | 291.3
399.6 K | – | 292.6
400 K | – | 296
401.2 K | – | 293.6
402.8 K | – | 294.7
404.4 K | – | 296.2
405.9 K | – | 297.3
407.5 K | – | 298.6
409.1 K | – | 299.8
410 K | – | 304
410.7 K | – | 301
412.3 K | – | 302.3
413.8 K | – | 303.9
415.4 K | – | 305.3
417 K | – | 306.5
418.6 K | – | 307.7
420 K | – | 312
420.2 K | – | 308.7
421.7 K | – | 309.9
423.3 K | – | 311.5
424.9 K | – | 312.6
426.5 K | – | 313.6
428.1 K | – | 314.7
429.7 K | – | 315.8
430 K | – | 319
431.2 K | – | 317
432.8 K | – | 318.4
434.4 K | – | 319.9
436 K | – | 321
437.6 K | – | 322.3
439.1 K | – | 323.5
440 K | – | 327
440.7 K | – | 324.8
442.3 K | – | 326
443.9 K | – | 326.9
445.5 K | – | 328
447 K | – | 329.5
448.6 K | – | 330.4
450 K | – | 334
450.2 K | – | 331.6
451.8 K | – | 332.9
453.4 K | – | 334.4
454.9 K | – | 335.7
456.5 K | – | 336.7
458.1 K | – | 337.3
459.7 K | – | 338.7
460 K | – | 342
461.3 K | – | 339.3
462.8 K | – | 340.6
464.4 K | – | 341.7
466 K | – | 343
467.6 K | – | 344.1
469.2 K | – | 345
470 K | – | 349
470.7 K | – | 346.4
